This is an account of results in article PMC10353061 (ACS Pharmacology & Translational Science, 2023).

In one experiment the test system is HCC1806 cells. Briefly: Cell proliferation by live-cell imaging (IncuCyte), HCC1806 TNBC cells. It counts as cell-based. Conditions: 40 μM, 72 h. The protocol:
As TNBC is a highly heterogeneous subgroup, including breast cancers with different molecular and phenotypic traits,[37] effects of compounds 5–10 on cell proliferation were also tested in additional TNBC cell lines, i.e., HCC1806 and HCC1937. As inhibitors of HCC1806 TNBC cells, compounds 5–10 were evaluated in parallel with compounds 3, ICG-001, and iCRT3 (Figures 10 and S12–S19, Supporting Information); as inhibitors of the HCC1937 TNBC cells, 5–10 were compared with 3 and iCRT3 (Figures 10, S20, and S21). Effects on cell proliferation were evaluated as above for the MDA-MB-231 TNBC cells at the latest time point of observation of 72 h.
(§1) Figure 10 Inhibition of MDA-MB-231, HCC1806, and HCC1937 TNBC cell growth by compounds 5–10 and reference compounds 3, […], and iCRT3 at 40 μM. Cell growth inhibition was quantified using the IncuCyte cell-by-cell analysis software, by comparison with the growth of DMSO-treated cells at 72 h, set at 100% (mean ± SD, n = 3, one-way ANOVA, **p ≤ 0.01, ****p ≤ 0.0001).
(§2) Cell proliferation of breast cancer cell lines upon continuous treatment with select compounds was evaluated by the real-time quantitative live-cell imaging system. MDA-MB-231 (1500 cells/well), HCC1806 (2000 cells/well), and HCC1937 (3000 cells/well) were seeded in 96-well plates, treated with increasing doses of selected compounds and images (5 images/well) were acquired every 8 h for 3 days at 10× magnification in an IncuCyte SX5 live-content imaging system (Essen Bioscience) at 37 °C with 5% CO2. Images were analyzed using IncuCyte cell-by-cell analysis software to detect and quantify live cells (phase-contrast). The number of cells at each time point was quantified using IncuCyte cell-by-cell analysis software, and cell growth was evaluated as the normalized ratio between counted cells at each time point normalized to those counted at time 0. Graph drawing and statistical analyses were performed in GraphPad Prism according to the statistical tests described in the figure legends.

Experiment [1] concerns Wnt/β-catenin signaling pathway. Briefly: Topflash/Fopflash luciferase report assay in SW480 cells. It counts as cell-based. Conditions: 30 μM. From the text: (§3) We synthesized derivatives 5–10 bearing 5-membered and 6-membered heterocyclic rings at the position 3′ or 4′ of the B phenyl ring. […] SW480 cells show higher Wnt activation compared to HCT116 cells.[28] […] In SW480 cells, compounds 5–10 were in the 1.75%(10)–7.32%(7) range of residual luciferase activity, except 6(28.46%), compared to 3(21.61%); in HCT116 cells, compounds 5–10 were in the 0.37%(7)–5.88%(5) range, compared to 3 (18.75%) (Table 1 and Figure 5).
(§4) Figure 5 Residual luciferase activity (%) by compounds 5–10 and reference compound 3 in SW480 cells (left panel) and HCT116 cells (right panel). Data are represented as the mean ± SD of three independent experiments, each performed in triplicate.
(§5) Briefly, the Topflash plasmid (Beyotime, Zhejiang, China) contains 7 TCF/LEF binding sites, while the Fopflash plasmid (Beyotime, Zhejiang, China) contains 6 mutated TCF/LEF binding sites, which are located in the upstream of the luciferase reporter. SW480 and HCT116 cell lines were cultured in 90% DMEM (HyClone, #SH30243.01) plus 10% fetal bovine serum (Gibco, #10270) and plasmocin (mpp-39-03, InvivoGen), respectively. The Topflash/Fopflash vector and plasmid pTK-renilla together were co-transfected to the cells. […] The Dual-Glo luciferase assay kit (Promega, #E1910) was used to measure the luminescence intensity (Figure 2).

The test system of another experiment is SW620 cells. Briefly: Inhibition of SW620 cells. It is filed as cell-based. Conditions: Homo sapiens, SW-620, in the combination 9 at constant 0.25 μM.
Experiment [2] relates to Wnt/β-catenin signaling pathway. Briefly: Topflash/Fopflash luciferase report assay in HCT116 cells. It counts as cell-based, human. To be noted: 30 μM.
Source text: as §3, §4, §5

Another experiment has as its system MDA-MB-231 cells. Briefly: Cell proliferation by live-cell imaging (IncuCyte), MDA-MB-231 TNBC cells. It counts as cell-based. Conditions: 40 μM, 48 and 72 h.
Source text: TNBC represents approximately 10–15% of all breast cancers and is the most aggressive subtype of breast cancer. Patients with TNBC have a poor outcome compared to the other subtypes of breast cancer. In the breast cancer tissue, β-catenin is overexpressed compared to the normal tissue. The overexpression of β-catenin is associated with TNBC and lymph node metastasis. […] There is a quest for the development of new therapies to treat TNBC. […] Effects on cell proliferation of MDA-MB-231 TNBC cells were evaluated by live-time cell imaging using the Incucyte S5 system.
as §1, §2

A further experiment has as its system β-catenin. Briefly: Wnt reporter assay (TOP/FOP luciferase) in LiCl-treated HCT116 cells. It counts as cell-based. Conditions: Homo sapiens, HCT-116, read-out: IC50, inhibition of β-catenin (luciferase reporter), LiCl 50 mM, 24 h. The protocol: Compounds 9 and 10 were assayed at increasing 10 and 100 nM and 1 μM concentrations in HCT116 cells transfected with luciferase-based vectors and treated with LiCl (50 mM). TOP TK is a well-established Wnt reporter vector containing eight sequences of Tcf/Lef binding site upstream of the timidine kinase (TK) minimal promoter, driving the expression of firefly luciferase.
Figure 6 HCT116 cells were transfected with luciferase-based vectors and treated with LiCl (50 mM) together with increasing concentrations of compound 9 or 10. Cells were harvested 24 h post-treatment and assayed for luciferase activity. Inhibitions were calculated as the luciferase/renilla ratio of the treated samples vs. the luciferase/renilla ratio of the untreated (control) samples. Data are represented as the mean ± SD of three independent experiments, each performed in triplicate. **p < 0.01, ***p < 0.001, n.s = not significant, as determined by analysis of variance (ANOVA).
Luciferase assays were performed as previously described.[58],[59] Briefly, HCT116 cells were transfected with Topflash reporter (M50 Super 8x TOPFlash, containing 8 repeats of TCF/LEF binding sites) or Fopflash reporter (M51 Super 8x FOPFlash, containing the mutated TCF/LEF binding sites) plasmids using the Dreamfect Gold Transfection Reagent (#DG80500, OZ Biosciences). […]
A general note: In a reporter assay the amount or activity of a reporter protein is the signal.

Turning to `O=S(=O)(Nc1ccc(-c2ccccn2)cc1)c1ccc(Br)cc1` [Compound 9, 4-Bromo-N-(4-(pyridin-2-yl)phenyl)benzenesulfonamide], the “effect on HCC1806 cell growth” value in the experiment on HCC1806 cells is “less effective”. In addition, the “% Luciferase Activity SW480 (residual)” value in experiment [1] is 8.75%. In addition, the EC50 (commonly the concentration that produces a half-maximal response) in the experiment on SW620 cells is 37 µM. For the same compound, in experiment [2], the “% Luciferase Activity HCT116 (residual)” value came out at 4.33%. Moreover, the “effect on MDA-MB-231 cell proliferation” value in the experiment on MDA-MB-231 cells was “less effective”. Also, the IC50 (usually the concentration needed to halve the response being measured) in the experiment on β-catenin is above 1 µM.
